# Data published in PubChem BioAssay AID328 (DTP/NCI, 2004).
# Where “and” joins values, the source holds several entries; their conditions need not be identical. Equal values may be shown once. Inconclusive results and toxic doses are left out.
# Tested on: BDF1 mice, P388 leukemia ip, median survival T/C
# Experiment: NCI In Vivo Anticancer Drug Screen. Data for tumor model P388 Leukemia (intraperitoneal) in B6D2F1 (BDF1) mice
# Settings: endpoint: median survival time, higher = longer survival
# How it was run: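 Antitumour effect was judged in vivo: survival in drug-treated mice, normalised to that of vehicle-dosed controls, gives the reported T/C.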
# [1] = dose: 25.0 mg/kg/injection, schedule: Q04DX003 (ip), vehicle: saline with Tween-80
# [2] = dose: 50.0 mg/kg/injection, schedule: Q04DX003 (ip), vehicle: saline with Tween-80
# [3] = dose: 100.0 mg/kg/injection, schedule: Q04DX003 (ip), vehicle: saline with Tween-80
structure (smiles),measurement,setting,value
Cn1c(=O)c2[nH]c(CN(CCCl)CCCl)nc2n(C)c1=O,T/C,"dose: 0.88 mg/kg/injection, schedule: Q04DX003 (ip), vehicle: saline with Tween-80",100 % of control
same,T/C,"dose: 1.32 mg/kg/injection, schedule: Q04DX003 (ip), vehicle: saline with Tween-80",109 % of control
same,T/C,"dose: 2.0 mg/kg/injection, schedule: Q04DX003 (ip), vehicle: saline with Tween-80",119 % of control
same,T/C,"dose: 2.4 mg/kg/injection, schedule: Q01DX009 (ip), vehicle: saline with Tween-80",154 % of control
same,T/C,"dose: 3.7 mg/kg/injection, schedule: Q01DX009 (ip), vehicle: saline with Tween-80",160 % of control
same,T/C,"dose: 5.56 mg/kg/injection, schedule: Q01DX009 (ip), vehicle: saline with Tween-80",163 % of control and 178 % of control
same,T/C,"dose: 8.33 mg/kg/injection, schedule: Q01DX009 (ip), vehicle: saline with Tween-80",172 % of control
same,T/C,"dose: 12.5 mg/kg/injection, schedule: Q01DX009 (ip), vehicle: saline with Tween-80",201 % of control
O=[N+]([O-])c1ccc(C(O)Nc2nccs2)o1 (configuration not stated),T/C,[1],95 % of control
same,T/C,[2],100 % of control and 104 % of control
same,T/C,[3],100 % of control
Cc1ccc(N2CCN(C3=CCC(C(C)C)CC3)CC2)cc1Cl (configuration not stated),T/C,"dose: 100.0 mg/kg/injection, schedule: Q01DX001 (ip), vehicle: saline with Tween-80",105 % of control
same,T/C,"dose: 200.0 mg/kg/injection, schedule: Q01DX001 (ip), vehicle: saline with Tween-80",105 % of control
C[S+](C)N(c1ccccc1)C(C)(C)C,T/C,"dose: 12.5 mg/kg/injection, schedule: Q04DX003 (ip), vehicle: saline with Tween-80",99 % of control
same,T/C,[1],104 % of control
same,T/C,[2],89 % of control
OCC1OC(n2cnc3c(NO)ncnc32)C(O)C1O (configuration not stated),T/C,"dose: 12.5 mg/kg/injection, schedule: Q01DX009 (ip), vehicle: Klucel (hydroxypropylcellulose) (HPC)",108 % of control
same,T/C,"dose: 100.0 mg/kg/injection, schedule: Q01DX009 (ip), vehicle: Klucel (hydroxypropylcellulose) (HPC)",108 % of control
CC(C)(C)SC(=O)C[Si](C)(C)C,T/C,[3],113 % of control
same,T/C,"dose: 200.0 mg/kg/injection, schedule: Q04DX003 (ip), vehicle: saline with Tween-80",123 % of control
NC(=O)c1ccc(Cl)c(Cl)c1,T/C,"dose: 100.0 mg/kg/injection, schedule: Q04DX003 (ip), vehicle: other",116 % of control
same,T/C,"dose: 200.0 mg/kg/injection, schedule: Q04DX003 (ip), vehicle: other",122 % of control
CC(=O)O[C@@]1(C)[C@@H](C)C(=O)O[C@@H]2CCN3CC=C(COC(=O)[C@]1(C)O)[C@H]23,T/C,"dose: 25.0 mg/kg/injection, schedule: Q01DX010 (ip), vehicle: carboxymethylcellulose (CMC)",110 % of control
same,T/C,"dose: 50.0 mg/kg/injection, schedule: Q01DX010 (ip), vehicle: carboxymethylcellulose (CMC)",95 % of control
same,T/C,"dose: 100.0 mg/kg/injection, schedule: Q01DX010 (ip), vehicle: carboxymethylcellulose (CMC)",100 % of control
C[n+]1cccc(NC(=O)c2ccc(NC(=O)c3ccc(C(=O)Nc4ccc(NC(=N)N)cc4)cc3)cc2)c1,T/C,"dose: 3.3 mg/kg/injection, schedule: Q04DX003 (ip), vehicle: saline",150 % of control
same,T/C,"dose: 5.0 mg/kg/injection, schedule: Q04DX003 (ip), vehicle: saline",159 % of control
same,T/C,"dose: 5.56 mg/kg/injection, schedule: Q04DX003 (ip), vehicle: saline",180 % of control
same,T/C,"dose: 7.5 mg/kg/injection, schedule: Q04DX003 (ip), vehicle: saline",195 % of control
same,T/C,"dose: 8.33 mg/kg/injection, schedule: Q04DX003 (ip), vehicle: saline",235 % of control
same,T/C,"dose: 12.5 mg/kg/injection, schedule: Q04DX003 (ip), vehicle: saline",235 % of control
same,T/C,"dose: 18.7 mg/kg/injection, schedule: Q04DX003 (ip), vehicle: saline",155 % of control
CCC[As](CCC)SC1OC(COC(C)=O)C(OC(C)=O)C(OC(C)=O)C1OC(C)=O (configuration not stated),T/C,"dose: 50.0 mg/kg/injection, schedule: Q01DX009 (ip), vehicle: saline + alcohol",109 % of control
CC(=O)O.CC(=O)O.CC(=O)O.CC(=O)O.[Rh].[Rh],T/C,"dose: 5.56 mg/kg/injection, schedule: Q01DX009 (ip), vehicle: saline",100 % of control and 122 % of control
same,T/C,"dose: 8.33 mg/kg/injection, schedule: Q01DX009 (ip), vehicle: saline",100 % of control
same,T/C,"dose: 12.5 mg/kg/injection, schedule: Q01DX009 (ip), vehicle: saline",118 % of control
same,T/C,"dose: 18.7 mg/kg/injection, schedule: Q01DX009 (ip), vehicle: saline",90 % of control and 111 % of control
